Our source for the IC50 values is patent publication US9145415B2, “Nitrogen-containing heterocyclic compound or salt thereof” (FUJIFILM Corporation, priority 2012, dated 2015).

Like-named read-outs stand apart in the source and are kept apart here.

Assay [1] has as its system MV4-11 cells. Briefly: Leukemia cell proliferation inhibition test (ATPlite), MV4-11. It counts as cell-based. Conditions: Homo sapiens, read-out: MV4-11 cell proliferation inhibition effect. Put shortly: (§1)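 Molm-13 or MV4-11 cells at 10,000 cells/well in RPMI with 10% FBS and pen/strep were exposed to serially diluted compound for 72 h at 37 °C, 5% CO2. Total cellular ATP was read by luciferase luminescence. GI50 was taken relative to 0.1% DMSO control, from duplicates by sigmoid non-linear regression.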

Assay [2] concerns Molm-13 cells. Nature of the assay: Leukemia cell proliferation inhibition test (ATPlite), Molm-13. The class given is cell-based. The settings on record: Homo sapiens, read-out: MOLM13 cell proliferation inhibition effect. Put shortly:
as §1
(In general: Cellular ATP, detected with luciferase, serves as a proxy for viable cell number.)

For assay [3], the target named is T1, human FLT3 protein (FLT3 (WT)) (Homo sapiens, UniProt P36888).
T1 construct: human FLT3 protein (intracellular region, 564 to 993 aa); GST; purchased Carna Biosciences; host or cells: baculovirus expression system
T1 sequence (P36888 564-993): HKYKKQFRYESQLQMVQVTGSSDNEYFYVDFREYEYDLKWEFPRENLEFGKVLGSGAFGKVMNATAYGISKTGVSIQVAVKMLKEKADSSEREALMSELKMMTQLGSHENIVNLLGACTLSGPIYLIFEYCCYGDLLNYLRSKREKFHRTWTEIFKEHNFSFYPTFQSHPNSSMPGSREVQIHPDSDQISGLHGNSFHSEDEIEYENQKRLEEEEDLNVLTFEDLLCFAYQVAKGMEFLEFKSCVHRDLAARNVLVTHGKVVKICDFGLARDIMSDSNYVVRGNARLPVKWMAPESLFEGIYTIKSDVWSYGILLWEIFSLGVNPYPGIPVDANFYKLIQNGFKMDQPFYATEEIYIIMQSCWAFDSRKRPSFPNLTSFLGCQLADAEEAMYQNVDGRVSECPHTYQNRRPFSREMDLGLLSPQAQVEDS
Briefly: FLT3 inhibition test (FLT3 enzyme inhibition, time-resolved fluorescence of substrate peptide phosphorylation). The class given is biochemical. The settings on record: read-out: FLT3 (WT) enzyme inhibition activity. The procedure, abridged:
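Wild-type human FLT3 (1.2 μg) pre-incubated with compound 15 min at 25° C in 100 mM HEPES pH 7.5, 10 mM MgCl2, 25 mM NaCl, 1 mM DTT. Reaction started with substrate peptide and ATP (final 50 μM), run 30 min at 25° C; phosphorylation read by time-resolved fluorescence.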

[4] abbreviates: MV4-11, 72 h, MV4-11, 72 hours culture, ATPlite, GI50 per method.
The mark [5] stands for this setting: MOLM-13, 72 h, Molm-13, 72 hours culture, ATPlite, GI50 per method.
The mark [6] stands for this setting: GST-fused human FLT3 (564 to 993 aa), ATP 50 μM.

As for `CCCNc1nc(Nc2ccnc(F)c2)ncc1C#CCCCNC(=O)[C@H](CC)N(C)C(=O)/C=C/CN(C)C` [Compound 9-18], the IC50 in assay [1] (setting [4]), in assay [2] (setting [5]) and in assay [3] (setting [6]) was less than 10 nM each time.

Take `CCCNc1nc(Nc2ccc(C#N)cc2)ncc1C#C[C@H]1CCC[C@@H](NC(=O)[C@H](C)N(C)C(=O)/C=C/CN(C)C)C1` [Compound 13-3]: the IC50 was less than 10 nM in assay [1] (setting [4]), 10 to 100 nM in assay [2] (setting [5]) and less than 10 nM in assay [3] (setting [6]).

With `C[C@@H](C(=O)NCCCC#Cc1cnc(Nc2cccc(F)c2)nc1NCC1CC1)N(C)C(=O)/C=C/CN(C)C` [Compound 21-4], the IC50 is less than 10 nM in assay [1] (setting [4]), 10 to 100 nM in assay [2] (setting [5]) and less than 10 nM in assay [3] (setting [6]).

For the molecule `COCCNc1nc(Nc2ccc(C#N)cc2)ncc1C#CCCCNC(=O)[C@H](C)N(C)C(=O)/C=C/CN(C)C` [Compound 10-50], the IC50 in assay [1] (setting [4]), in assay [2] (setting [5]) and in assay [3] (setting [6]) was less than 10 nM in each case.

In the case of `CCCNc1nc(Nc2ccc3[nH]ncc3c2)ncc1C#CCCCNC(=O)[C@H](C)N(C)C(=O)/C=C/CN(C)C` [Compound 21-55], the IC50 in assay [1] (MV4-11, MV4-11 cell) was less than 10 nM; in assay [2] (MOLM-13, MOLM13 cell), less than 10 nM; in assay [3] (FLT3 (WT)) it was less than 10 nM.

Consider `CCCNc1nc(Nc2ccc(C#N)cc2)ncc1C#CCCCNC(=O)[C@H](COC)NC(=O)/C=C/CN(C)C` [Compound 7-44], for which the IC50 in assay [1] (setting [4]), in assay [2] (setting [5]) and in assay [3] (setting [6]) was less than 10 nM in each case.

Turning to `CNc1nc(Nc2ccc(F)cc2)ncc1C#CCCCNC(=O)[C@@H]1CC(F)(F)CN1C(=O)/C=C/CN(C)C` [Compound 7-93], the IC50 in assay [1] (setting [4]), in assay [2] (setting [5]) and in assay [3] (setting [6]) was less than 10 nM in each case.

On to `CCCNc1nc(Nc2ccc(C(N)=O)cc2)ncc1C(=O)Nc1cccc(NC(=O)[C@H](C)N(C)C(=O)/C=C/CN(C)CCO)c1` [Compound 4-9], for which the IC50 in assay [1] (setting [4]), in assay [2] (setting [5]) and in assay [3] (setting [6]) was less than 10 nM in each case.

On to `COCCCNc1nc(Nc2ccc(F)nc2)ncc1C#CCCCNC(=O)CN(C)C(=O)/C=C/CN(C)C` [Compound 10-31], for which the results for the IC50 in assay [1] (setting [4]), in assay [2] (setting [5]) and in assay [3] (setting [6]) were less than 10 nM, 10 to 100 nM and less than 10 nM, respectively.

For `CCCNc1nc(NCCc2ccncc2)ncc1C(=O)Nc1ccc(OC)c(NC(=O)CN(C)C(=O)/C=C/CN(C)C)c1` [Compound 1-10], the IC50 in assay [1] (setting [4]), in assay [2] (setting [5]) and in assay [3] (setting [6]) was less than 10 nM in each case.

For the molecule `CCCOc1nc(Nc2ccc(C#N)cc2)ncc1C#C[C@@H]1CCC[C@H](NC(=O)[C@H](C)N(C)C(=O)/C=C/CN(C)C)C1` [Compound 21-13], the IC50 in assay [1] (setting [4]), in assay [2] (setting [5]) and in assay [3] (setting [6]) was less than 10 nM each time.

Take `CCNc1nc(Nc2ccc3cn[nH]c3c2)ncc1C#CCCCNC(=O)[C@@H]1CCCN1C(=O)/C=C/CN(C)C` [Compound 10-70]: the IC50 in assay [1] (setting [4]), in assay [2] (setting [5]) and in assay [3] (setting [6]) was less than 10 nM throughout.

In the case of `C[C@@H](C(=O)NCCCC#Cc1cnc(Nc2ccc3cn[nH]c3c2)nc1NC1CC1)N(C)C(=O)/C=C/CN(C)C` [Compound 10-73], the IC50 in assay [1] (setting [4]), in assay [2] (setting [5]) and in assay [3] (setting [6]) was less than 10 nM each time.

With `CCCNc1nc(NCCc2ccncc2)ncc1C(=O)Nc1cccc(NC(=O)CNC(=O)/C=C/CN2CCOCC2)c1` [Compound 2-13], the IC50 in assay [1] (setting [4]) was 10 to 100 nM; in assay [2] (setting [5]), 10 to 100 nM; in assay [3] (setting [6]), less than 10 nM.

For the molecule `CCCN(C)c1nc(Nc2cccc(C#N)c2)ncc1C#CCCCNC(=O)[C@H](C)N(C)C(=O)/C=C/CN(C)C` [Compound 9-3], the IC50 is less than 10 nM in assay [1] (setting [4]), 10 to 100 nM in assay [2] (setting [5]) and less than 10 nM in assay [3] (setting [6]).

For `CCCNc1nc(Nc2ccc(C#N)cc2)ncc1C#CCCCNC(=O)[C@H]1CCCN1C(=O)/C=C/CN(C)C` [Compound 7-36], the IC50 is less than 10 nM in assay [1] (setting [4]), 10 to 100 nM in assay [2] (setting [5]) and less than 10 nM in assay [3] (setting [6]).

`CCCNc1nc(Nc2cnc(N3CCOCC3)c(F)c2)ncc1C#CCCCNC(=O)[C@H](C)N(C)C(=O)/C=C/CN(C)C` [Compound 21-8]: the IC50 in assay [1] (setting [4]), in assay [2] (setting [5]) and in assay [3] (setting [6]) was 10 to 100 nM in each case.

As to `COCCCNc1nc(Nc2ccc(C#N)cc2)ncc1C#C[C@H]1C[C@@H](NC(=O)[C@H](C)N(C)C(=O)/C=C/CN(C)C)C1` [Compound 15-16, (E)-N—((S)-1-(((1S,3R)-3-((2-((4-Cyanophenyl)amino)-4-((3-methoxypropyl)amino)pyrimidin-5-yl)ethynyl)cyclobutyl)amino)-1-oxopropan-2-yl)-4-(dimethylamino)-N-methyl-2-butenamide], the IC50 in assay [1] (setting [4]), in assay [2] (setting [5]) and in assay [3] (setting [6]) was less than 10 nM each time.

Consider `CCCNc1nc(Nc2ccc3c(OC)nn(COCC)c3c2)ncc1C#CCCCNC(=O)[C@H](C)N(C)C(=O)/C=C/CN(C)C` [Compound 22-50], for which the IC50 was 10 to 100 nM in assay [1] (MV4-11, MV4-11 cell); less than 10 nM in assay [2] (MOLM-13, MOLM13 cell); less than 10 nM in assay [3] (FLT3 (WT)).

For `CCOc1nc(Nc2cccc(F)c2)ncc1C#C[C@@H]1CCC[C@H](NC(=O)[C@H](C)N(C)C(=O)/C=C/CN(C)C)C1` [Compound 21-19], the IC50 in assay [1] (setting [4]), in assay [2] (setting [5]) and in assay [3] (setting [6]) was less than 10 nM each time.

With `CNc1nc(Nc2ccc(C#N)cc2)ncc1C#CCCCNC(=O)CN(C)C(=O)/C=C/CN(C)C` [Compound 7-88, (E)-N-(2-((5-(2-((4-Cyanophenyl)amino)-4-(methylamino)pyrimidin-5-yl)-4-pentyn-1-yl)amino)-2-oxoethyl)-4-(dimethylamino)-N-methyl-2-butenamide], the IC50 in assay [1] (setting [4]), in assay [2] (setting [5]) and in assay [3] (setting [6]) was less than 10 nM each time.

As to `CCCNc1nc(Nc2ccc(C(=O)N(C)C)cc2)ncc1C#CCCCNC(=O)[C@H](C)N(C)C(=O)/C=C/CN(C)C` [Compound 7-15], the IC50 was less than 10 nM in assay [1] (setting [4]), less than 10 nM in assay [2] (setting [5]) and 10 to 100 nM in assay [3] (setting [6]).

As to `CCCNc1nc(Nc2ccc(C(N)=O)cc2)ncc1C(=O)Nc1cccc(NC(=O)[C@H](C)N(C)C(=O)/C=C/C(CC)N(C)C)c1` (stereo partly drawn) [Compound 4-15], the IC50 was 10 to 100 nM in assay [1] (setting [4]), 100 to 1000 nM in assay [2] (setting [5]) and less than 10 nM in assay [3] (setting [6]).

Take `CCCNc1nc(Nc2ccc(C(N)=O)cc2)ncc1C(=O)Nc1cccc(NC2CCCN(C(=O)/C=C/CN(C)C)C2)c1` (stereo not drawn) [Compound 3-19]: the IC50 was 10 to 100 nM in assay [1] (setting [4]), 100 to 1000 nM in assay [2] (setting [5]) and less than 10 nM in assay [3] (setting [6]).

As to `CNc1nc(Nc2ccc3[nH]ncc3c2)ncc1C#CCCCNC(=O)[C@H](C)N(C)C(=O)/C=C/CN(C)C` [Compound 10-60], the IC50 in assay [1] (setting [4]), in assay [2] (setting [5]) and in assay [3] (setting [6]) was less than 10 nM in each case.

With `CCCNc1nc(Nc2ccnc(OC)c2)ncc1C#CCCCNC(=O)[C@@H]1C[C@H](F)CN1C(=O)/C=C/CN(C)C` [Compound 9-37, (2S,4S)-1-((E)-4-(Dimethylamino)-2-butenoyl)-4-fluoro-N-(5-(2-((2-methoxypyridin-4-yl)amino)-4-(propylamino)pyrimidin-5-yl)-4-pentyn-1-yl)pyrrolidine-2-carboxamide], the IC50 in assay [1] (setting [4]), in assay [2] (setting [5]) and in assay [3] (setting [6]) was less than 10 nM throughout.

As to `CCCNc1nc(Nc2ccc(C(N)=O)cc2)ncc1C(=O)Nc1cccc(NC(=O)[C@@H]2CCCN2C(=O)/C=C/CN(C)C)c1` [Compound 3-30], the IC50 is less than 10 nM in assay [1] (setting [4]), 10 to 100 nM in assay [2] (setting [5]) and less than 10 nM in assay [3] (setting [6]).

Regarding `CCCNc1nc(Nc2ccc3c(OC)nn(C)c3c2)ncc1C#CCCCNC(=O)[C@H](C)N(C)C(=O)/C=C/CN(C)C` [Compound 22-26], the IC50 in assay [1] (MV4-11, MV4-11 cell) was 10 to 100 nM; in assay [2] (MOLM-13, MOLM13 cell), 10 to 100 nM; in assay [3] (FLT3 (WT)), less than 10 nM.

On to `CCCNc1nc(NC)ncc1C#C[C@@H]1CCC[C@H](NC(=O)[C@H](C)N(C)C(=O)/C=C/CN(C)C)C1` [Compound 21-35], for which the IC50 in assay [1] (MV4-11, MV4-11 cell) is 10 to 100 nM; in assay [2] (MOLM-13, MOLM13 cell) it was 10 to 100 nM; in assay [3] (FLT3 (WT)), less than 10 nM.

On to `C=CC(=O)NCC(=O)NC1CCCC(NC(=O)c2cnc(NCCc3ccncc3)nc2NCCC)C1` (stereo not drawn) [Compound 1-4], for which the IC50 in assay [1] (setting [4]) is less than 10 nM; in assay [2] (setting [5]), 10 to 100 nM; in assay [3] (setting [6]), less than 10 nM.

With `CCCNc1nc(Nc2cnc3ccc(OC)cc3c2)ncc1C#CCCCNC(=O)[C@H](C)N(C)C(=O)/C=C/CN(C)C` [Compound 21-16], the IC50 in assay [1] (setting [4]), in assay [2] (setting [5]) and in assay [3] (setting [6]) was less than 10 nM each time.
